{"source": "the supplement of paper PMC11208160", "data": [{"test": "recombinant UMI read abundance after kanamycin selection (control-corrected) (log10(CPM+1)); higher = more efficient recombination; extreme values may be limits of the assay; sequences stand for … in AGTGCAGAGAAAATCGGCCAGTTTTCTCTGCCTGCAGTCCGCATGCCGTGGGACCCCTTGGGTTCTAACCTGTTGCCTAGATTTATGCAGCGGACTGCCTTTCTCCCAAAGTGATAAACCGG…AGGTTGGTTTCACT; site = the 11-nt donor", "summary_of_the_method": "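Reported values are log10(CPM+1) from a pooled Escherichia coli screen of donor and donor-binding-loop pairs for the IS621 bridge recombinase. Selection used IPTG (0.07 mM) plus kanamycin, against unselected plating, each in two replicates. Recombinant UMIs were amplified across the donor–target junction, sequenced, converted to CPM, averaged over replicates and scaled by control-derived factors.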", "values": [{"sequence": "GGCCCTACATGGACCGGTTTTCCCGGTAATCCGTATTTGTG (site GGCCCTACTCA)", "recombinant UMI read abundance (log10)": 0.33}, {"sequence": "GGCCGCACATGGACCGGTTTTCCCGGTAATCCGTATTTGCA (site GGCCGCACTTG)", "recombinant UMI read abundance (log10)": 1.77}, {"sequence": "GGCCGCCCATGGACCGGTTTTCCCGGTAATCCGTATTTGTT (site GGCCACCCTAA)", "recombinant UMI read abundance (log10)": 0.0225}, {"sequence": "GGCCGCCCATGGACCGGTTTTCCCGGTAATCCGTATTTGTT (site GGCCCCCCTAA)", "recombinant UMI read abundance (log10)": 0.00441}, {"sequence": "GGCCGCCCATGGACCGGTTTTCCCGGTAATCCGTATTTGTT (site GGCCGCCCTAA)", "recombinant UMI read abundance (log10)": 0.00876}, {"sequence": "GGCCGCCCATGGACCGGTTTTCCCGGTAATCCGTATTTGTT (site GGCCTCCCTAA)", "recombinant UMI read abundance (log10)": 0.0158}, {"sequence": "GGCCGTACATGGACCGGTTTTCCCGGTAATCCGTATTTGCT (site AGCCGTACTAG)", "recombinant UMI read abundance (log10)": 0.00424}, {"sequence": "GGCCGTACATGGACCGGTTTTCCCGGTAATCCGTATTTGCT (site CGCCGTACTAG)", "recombinant UMI read abundance (log10)": 0.413}, {"sequence": "GGCCGTACATGGACCGGTTTTCCCGGTAATCCGTATTTGCT (site GGCCGTACTAG)", "recombinant UMI read abundance (log10)": 1.83}, {"sequence": "GGCCGTACATGGACCGGTTTTCCCGGTAATCCGTATTTGCT (site TGCCGTACTAG)", "recombinant UMI read abundance (log10)": 0.302}, {"sequence": "GGCCTTTCATGGACCGGTTTTCCCGGTAATCCGTATTTGAC (site AGCCTTTCTGT)", "recombinant UMI read abundance (log10)": 0}, {"sequence": "GGCCTTTCATGGACCGGTTTTCCCGGTAATCCGTATTTGAC (site CGCCTTTCTGT)", "recombinant UMI read abundance (log10)": 0}, {"sequence": "GGCCTTTCATGGACCGGTTTTCCCGGTAATCCGTATTTGAC (site GGCCTTTCTGT)", "recombinant UMI read abundance (log10)": 0}, {"sequence": "GGCCTTTCATGGACCGGTTTTCCCGGTAATCCGTATTTGAC (site TGCCTTTCTGT)", "recombinant UMI read abundance (log10)": 0}, {"sequence": "GGCCTTTCATGGACCGGTTTTCCCGGTAATCCGTATTTGTC (site GGCCTTTCTGA)", "recombinant UMI read abundance (log10)": 1.46}, {"sequence": "GGCGATCCATGGACCGGTTTTCCCGGTAATCCGTATTTGAA (site GGCAATCCTTT)", "recombinant UMI read abundance (log10)": 0.0192}, {"sequence": "GGCGATCCATGGACCGGTTTTCCCGGTAATCCGTATTTGAA (site GGCCATCCTTT)", "recombinant UMI read abundance (log10)": 0.0198}, {"sequence": "GGCGATCCATGGACCGGTTTTCCCGGTAATCCGTATTTGAA (site GGCGATCCTTT)", "recombinant UMI read abundance (log10)": 0.785}, {"sequence": "GGCGATCCATGGACCGGTTTTCCCGGTAATCCGTATTTGAA (site GGCTATCCTTT)", "recombinant UMI read abundance (log10)": 0.141}, {"sequence": "GGCGCCTCATGGACCGGTTTTCCCGGTAATCCGTATTTGGG (site GGCGCCTCTCC)", "recombinant UMI read abundance (log10)": 0.0423}, {"sequence": "GGCGGGGCATGGACCGGTTTTCCCGGTAATCCGTATTTGTA (site GGCGGGGCTTA)", "recombinant UMI read abundance (log10)": 1.53}, {"sequence": "GGCGTAGCATGGACCGGTTTTCCCGGTAATCCGTATTTGTG (site GGCGTAGCTCA)", "recombinant UMI read abundance (log10)": 0.747}, {"sequence": "GGCTAGGCATGGACCGGTTTTCCCGGTAATCCGTATTTGGT (site AGCTAGGCTAC)", "recombinant UMI read abundance (log10)": 0.208}, {"sequence": "GGCTAGGCATGGACCGGTTTTCCCGGTAATCCGTATTTGGT (site CGCTAGGCTAC)", "recombinant UMI read abundance (log10)": 0.399}, {"sequence": "GGCTAGGCATGGACCGGTTTTCCCGGTAATCCGTATTTGGT (site GGCTAGGCTAC)", "recombinant UMI read abundance (log10)": 0.271}, {"sequence": "GGCTAGGCATGGACCGGTTTTCCCGGTAATCCGTATTTGGT (site TGCTAGGCTAC)", "recombinant UMI read abundance (log10)": 0.0118}, {"sequence": "GGCTCAGCATGGACCGGTTTTCCCGGTAATCCGTATTTGGG (site AGCTCAGCTCC)", "recombinant UMI read abundance (log10)": 0.00802}, {"sequence": "GGCTCAGCATGGACCGGTTTTCCCGGTAATCCGTATTTGGG (site CGCTCAGCTCC)", "recombinant UMI read abundance (log10)": 0.0293}, {"sequence": "GGCTCAGCATGGACCGGTTTTCCCGGTAATCCGTATTTGGG (site GGCTCAGCTCC)", "recombinant UMI read abundance (log10)": 0.02}, {"sequence": "GGCTCAGCATGGACCGGTTTTCCCGGTAATCCGTATTTGGG (site TGCTCAGCTCC)", "recombinant UMI read abundance (log10)": 0.00932}, {"sequence": "GGCTGACCATGGACCGGTTTTCCCGGTAATCCGTATTTGAA (site GGCTGACCTTT)", "recombinant UMI read abundance (log10)": 0.00353}, {"sequence": "GGCTTAACATGGACCGGTTTTCCCGGTAATCCGTATTTGTC (site GGCTTAACTGA)", "recombinant UMI read abundance (log10)": 0.732}]}]}
